Experiments:
Type in all cases: in vivo, Male Wistar rats
[1] = tested on: levels of acetylcholine in the cerebral cortex (frontal area), in the hippocampus and in the corpus striatum; test: Levels of acetylcholine in rat brain areas after 1 week of treatment
[2] = tested on: immunoreactivity of the neuronal acetylcholine in the neurones of the magnocellular nucleus basalis (MNB) and in the corpus striatum; test: Immunoreactivity of neuronal acetylcholine in MNB and corpus striatum neurones
[3] = biological target: T1, acetylcholinesterase (AChE) (Rattus norvegicus, UniProt P37136); test: Activity of acetylcholinesterase in treated rats; settings: choline alfoscerate alone, 150 mg/kg
T1 construct: Male Wistar rats were divided into 5 groups; from tissue; host or cells: Male Wistar rats
T1 sequence (P37136 32-614): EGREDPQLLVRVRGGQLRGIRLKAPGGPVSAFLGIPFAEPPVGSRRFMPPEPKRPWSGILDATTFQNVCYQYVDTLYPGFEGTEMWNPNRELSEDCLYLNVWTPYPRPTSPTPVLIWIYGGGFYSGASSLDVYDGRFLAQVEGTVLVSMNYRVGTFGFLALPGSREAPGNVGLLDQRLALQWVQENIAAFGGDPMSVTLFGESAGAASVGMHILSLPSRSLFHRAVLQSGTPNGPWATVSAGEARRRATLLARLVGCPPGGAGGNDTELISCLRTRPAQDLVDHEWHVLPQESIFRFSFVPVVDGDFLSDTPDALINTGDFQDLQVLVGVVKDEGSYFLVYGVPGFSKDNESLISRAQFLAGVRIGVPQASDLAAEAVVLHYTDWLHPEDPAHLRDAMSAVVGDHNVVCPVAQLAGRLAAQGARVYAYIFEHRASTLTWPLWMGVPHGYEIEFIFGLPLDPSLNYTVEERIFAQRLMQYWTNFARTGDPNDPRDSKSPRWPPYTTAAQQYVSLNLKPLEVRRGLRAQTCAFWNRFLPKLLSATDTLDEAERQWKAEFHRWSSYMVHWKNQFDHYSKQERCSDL

Structure (SMILES): C[N+](C)(C)CCOP(=O)([O-])OC[C@H](O)CO [choline alfoscerate]
- release of acetylcholine ([1]; 150 mg/kg choline alfoscerate, hippocampus and corpus striatum, reason for the choice of dose): significantly increases
- increase in the levels of acetylcholine, compared with rivastigmine ([1]; choline alfoscerate alone versus rivastigmine 2.5 mg/kg, frontal cerebral cortex, hippocampus, corpus striatum): to the same extent as the dosage of the AchE inhibitor, rivastigmine
- increased the levels of acetylcholine ([1]; choline alfoscerate alone, 150 mg/kg intraperitoneal, 1 week): approximately 20%
- immunoreactivity of the acetylcholine ([2]; choline alfoscerate alone, 150 mg/kg, MNB neurones and interneurones of the corpus striatum, more marked in the MNB): increased in a similar fashion
- effect on the activity of the AChE [3]: did not show any effect

Structure (SMILES): CCN(C)C(=O)Oc1cccc([C@H](C)N(C)C)c1 [rivastigmine]
- immunoreactivity of the acetylcholine ([2]; rat, in vivo, 2.5 mg/kg): increased in a similar fashion

— patent publication EP1203584A1 (priority 2000, dated 2002)
